Measurements as given in ChEMBL document CHEMBL5316381, “Discovery of [1,2,3]Triazolo[4,5-c]quinoline Derivatives as a New Class of Ataxia-Telangiectasia Mutated Kinase Inhibitors” (ACS Med Chem Lett, 2023).
pIC50: −log10 of the molar value. Active and inactive are the calls of the source. The calls are words filed in the database; no cut-off is given here.

How the values were obtained:
[1] = target: T1, Serine-protein kinase ATM (Homo sapiens, UniProt Q13315); experiment: Inhibition of ATM (unknown origin) using GST-cMyc-p53 as substrate incubated for 30 mins in presence of Mg/ATP mix by HTRF-based analysis
T1 sequence (Q13315 whole entry): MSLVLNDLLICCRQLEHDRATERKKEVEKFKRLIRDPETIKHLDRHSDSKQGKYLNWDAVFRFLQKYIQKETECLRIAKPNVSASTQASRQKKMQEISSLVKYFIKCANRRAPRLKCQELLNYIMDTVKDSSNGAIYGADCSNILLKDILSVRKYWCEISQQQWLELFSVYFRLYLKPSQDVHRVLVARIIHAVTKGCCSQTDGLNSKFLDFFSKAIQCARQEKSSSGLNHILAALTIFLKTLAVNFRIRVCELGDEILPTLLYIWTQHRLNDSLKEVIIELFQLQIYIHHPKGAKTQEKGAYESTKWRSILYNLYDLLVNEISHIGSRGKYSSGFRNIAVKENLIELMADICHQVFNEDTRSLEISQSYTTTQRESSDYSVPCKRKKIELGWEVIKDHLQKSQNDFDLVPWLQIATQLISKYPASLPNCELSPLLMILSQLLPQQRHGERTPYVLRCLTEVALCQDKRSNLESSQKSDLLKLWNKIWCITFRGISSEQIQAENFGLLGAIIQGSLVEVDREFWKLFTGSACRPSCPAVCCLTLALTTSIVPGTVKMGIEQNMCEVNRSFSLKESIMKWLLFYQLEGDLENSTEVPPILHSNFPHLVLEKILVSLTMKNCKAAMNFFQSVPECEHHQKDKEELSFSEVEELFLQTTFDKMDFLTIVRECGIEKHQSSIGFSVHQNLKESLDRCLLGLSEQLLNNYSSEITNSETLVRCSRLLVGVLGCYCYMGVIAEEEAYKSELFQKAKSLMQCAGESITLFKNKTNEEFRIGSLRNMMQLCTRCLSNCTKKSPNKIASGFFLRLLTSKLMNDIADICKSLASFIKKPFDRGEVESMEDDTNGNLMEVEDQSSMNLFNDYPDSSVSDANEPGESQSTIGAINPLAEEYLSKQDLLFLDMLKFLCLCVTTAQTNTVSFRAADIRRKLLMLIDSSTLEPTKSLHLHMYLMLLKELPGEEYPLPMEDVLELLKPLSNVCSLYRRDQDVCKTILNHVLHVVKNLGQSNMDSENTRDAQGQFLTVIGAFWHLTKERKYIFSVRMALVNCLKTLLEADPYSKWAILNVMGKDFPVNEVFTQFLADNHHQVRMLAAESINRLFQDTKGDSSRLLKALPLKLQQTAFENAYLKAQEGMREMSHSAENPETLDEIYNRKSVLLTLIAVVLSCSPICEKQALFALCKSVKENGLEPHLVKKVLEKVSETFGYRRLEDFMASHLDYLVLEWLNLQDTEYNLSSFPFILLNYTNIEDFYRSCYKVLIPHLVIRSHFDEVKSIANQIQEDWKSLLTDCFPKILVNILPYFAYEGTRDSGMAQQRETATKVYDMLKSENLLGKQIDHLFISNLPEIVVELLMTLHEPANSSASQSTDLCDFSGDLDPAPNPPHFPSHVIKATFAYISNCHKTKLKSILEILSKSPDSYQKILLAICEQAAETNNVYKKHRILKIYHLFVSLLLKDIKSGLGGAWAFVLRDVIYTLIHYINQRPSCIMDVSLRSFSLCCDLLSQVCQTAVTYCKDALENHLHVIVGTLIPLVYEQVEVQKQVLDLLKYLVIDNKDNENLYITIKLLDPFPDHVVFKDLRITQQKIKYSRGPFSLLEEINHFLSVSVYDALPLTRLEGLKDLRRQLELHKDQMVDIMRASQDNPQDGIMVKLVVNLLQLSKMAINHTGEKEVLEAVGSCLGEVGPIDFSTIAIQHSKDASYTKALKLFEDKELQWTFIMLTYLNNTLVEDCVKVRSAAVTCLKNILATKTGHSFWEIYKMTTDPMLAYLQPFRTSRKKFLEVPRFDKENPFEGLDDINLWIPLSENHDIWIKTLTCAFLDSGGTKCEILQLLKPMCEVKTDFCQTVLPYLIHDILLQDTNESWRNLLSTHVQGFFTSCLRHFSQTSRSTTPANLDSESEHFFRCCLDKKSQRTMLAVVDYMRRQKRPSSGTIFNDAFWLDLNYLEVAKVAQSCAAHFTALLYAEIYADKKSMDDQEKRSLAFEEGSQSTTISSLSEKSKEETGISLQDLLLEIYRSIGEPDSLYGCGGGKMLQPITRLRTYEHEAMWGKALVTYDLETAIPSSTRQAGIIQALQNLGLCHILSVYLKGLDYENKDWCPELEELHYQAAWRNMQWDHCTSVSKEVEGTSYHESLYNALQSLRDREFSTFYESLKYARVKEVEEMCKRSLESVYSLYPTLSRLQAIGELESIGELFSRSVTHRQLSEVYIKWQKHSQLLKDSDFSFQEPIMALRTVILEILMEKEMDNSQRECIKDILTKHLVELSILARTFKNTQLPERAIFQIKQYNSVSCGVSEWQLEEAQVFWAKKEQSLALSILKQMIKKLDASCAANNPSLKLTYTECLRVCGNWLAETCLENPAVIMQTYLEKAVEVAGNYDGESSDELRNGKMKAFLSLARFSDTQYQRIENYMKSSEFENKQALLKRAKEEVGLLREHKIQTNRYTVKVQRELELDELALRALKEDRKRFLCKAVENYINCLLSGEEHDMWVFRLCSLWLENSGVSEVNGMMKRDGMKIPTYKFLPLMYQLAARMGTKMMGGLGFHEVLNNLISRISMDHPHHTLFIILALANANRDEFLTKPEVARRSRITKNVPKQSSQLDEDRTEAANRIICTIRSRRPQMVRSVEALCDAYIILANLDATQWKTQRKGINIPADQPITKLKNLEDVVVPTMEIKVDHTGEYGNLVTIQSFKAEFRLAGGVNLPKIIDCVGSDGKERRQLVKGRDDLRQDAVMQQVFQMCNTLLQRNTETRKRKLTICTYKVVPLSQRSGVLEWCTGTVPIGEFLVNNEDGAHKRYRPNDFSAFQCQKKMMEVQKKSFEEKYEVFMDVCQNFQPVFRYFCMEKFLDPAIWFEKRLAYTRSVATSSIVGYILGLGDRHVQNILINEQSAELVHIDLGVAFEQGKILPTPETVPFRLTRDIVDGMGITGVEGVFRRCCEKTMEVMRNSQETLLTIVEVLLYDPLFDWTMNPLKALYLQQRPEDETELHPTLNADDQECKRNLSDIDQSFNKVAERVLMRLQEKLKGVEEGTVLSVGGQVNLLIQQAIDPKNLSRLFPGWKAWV

[2] = test system: SW-620; experiment: Radiosensitizing activity against human SW620 cells assessed as reduction in colony formation at 9 nM incubated after 14 days in the presence of 3 Gy irradiation by crystal violet staining based analysis; assay type: functional, cell-based; details: time 14.0 day
[3] = test system: SW-620; experiment: Radiosensitizing activity against human SW620 cells assessed as reduction in colony formation at 9 nM incubated after 14 days in the presence of 1.5 Gy irradiation by crystal violet staining based analysis; assay type: functional, cell-based; details: time 14.0 day
[4] = test system: SW-620; experiment: Antiproliferative activity against human SW620 cells assessed as reduction in colony formation at 9 nM measured after 14 days by crystal violet staining based microscopic analysis; assay type: functional, cell-based; details: time 14.0 day
[5] = test system: SW-620; experiment: Antiproliferative activity against human SW620 cells assessed as reduction in colony formation at 27 nM measured after 14 days by crystal violet staining based microscopic analysis; assay type: functional, cell-based; details: time 14.0 day
[6] = test system: SW-620; experiment: Radiosensitizing activity against human SW620 cells assessed as reduction in colony formation at 27 nM incubated after 14 days in the presence of 1.5 Gy irradiation by crystal violet staining based analysis; assay type: functional, cell-based; details: time 14.0 day
[7] = test system: SW-620; experiment: Radiosensitizing activity against human SW620 cells assessed as reduction in colony formation at 27 nM incubated after 14 days in the presence of 3 Gy irradiation by crystal violet staining based analysis; assay type: functional, cell-based; details: time 14.0 day
[8] = target: Serine/threonine-protein kinase Chk2 (Homo sapiens) (UniProt O96017); experiment: Inhibition of CPT-11 induced Chk2 phosphorylation in human SW620 cells by SDS-PAGE based Westernblot analysis; assay type: cell-based
Sequence of Serine/threonine-protein kinase Chk2 (Homo sapiens) (O96017 whole entry): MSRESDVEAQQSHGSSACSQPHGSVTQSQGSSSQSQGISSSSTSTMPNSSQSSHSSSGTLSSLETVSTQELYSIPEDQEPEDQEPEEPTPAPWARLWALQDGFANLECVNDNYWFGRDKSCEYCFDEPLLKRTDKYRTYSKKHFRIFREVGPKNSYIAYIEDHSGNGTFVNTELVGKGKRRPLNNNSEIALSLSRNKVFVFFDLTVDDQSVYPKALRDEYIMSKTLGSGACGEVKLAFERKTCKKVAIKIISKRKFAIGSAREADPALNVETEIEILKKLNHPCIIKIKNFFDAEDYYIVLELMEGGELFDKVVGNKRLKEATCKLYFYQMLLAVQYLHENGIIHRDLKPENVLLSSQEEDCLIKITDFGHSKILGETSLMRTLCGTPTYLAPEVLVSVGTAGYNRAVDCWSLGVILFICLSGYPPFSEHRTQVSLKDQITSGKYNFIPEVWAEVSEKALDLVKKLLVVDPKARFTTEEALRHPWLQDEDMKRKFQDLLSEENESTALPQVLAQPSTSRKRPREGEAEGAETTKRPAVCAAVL

[9] = target: Serine/threonine-protein kinase Chk2 (Homo sapiens) (UniProt O96017); experiment: Inhibition of CPT-11 induced Chk2 phosphorylation in human SW620 cells assessed as fold change in phosphorylated chk2 protein level at 30 nM by SDS-PAGE based Western blot analysis relative to control; assay type: cell-based
[10] = target: Serine/threonine-protein kinase Chk2 (Homo sapiens) (UniProt O96017); experiment: Inhibition of CPT-11 induced Chk2 phosphorylation in human SW620 cells assessed as fold change in phosphorylated chk2 protein level at 10 nM by SDS-PAGE based Western blot analysis relative to control; assay type: cell-based
[11] = target: Serine/threonine-protein kinase Chk2 (Homo sapiens) (UniProt O96017); experiment: Inhibition of CPT-11 induced Chk2 phosphorylation in human SW620 cells assessed as fold change in phosphorylated chk2 protein level at 3 nM by SDS-PAGE based Western blot analysis relative to control; assay type: cell-based
[12] = target: Serine/threonine-protein kinase Chk2 (Homo sapiens) (UniProt O96017); experiment: Inhibition of CPT-11 induced Chk2 phosphorylation in human SW620 cells assessed as fold change in phosphorylated chk2 protein level at 1 nM by SDS-PAGE based Western blot analysis relative to control; assay type: cell-based
[13] = target: Serine/threonine-protein kinase Chk2 (Homo sapiens) (UniProt O96017); experiment: Inhibition of Chk2 phosphorylation in human SW620 cells with IR-induced DNA damage assessed as fold change in phosphorylated Chk2 protein level at 3 nM in the presence of 1.5 Gy irradiation by Western blot analysis relative to control; assay type: cell-based
[14] = target: Serine/threonine-protein kinase Chk2 (Homo sapiens) (UniProt O96017); experiment: Inhibition of Chk2 phosphorylation in human SW620 cells with IR-induced DNA damage assessed as fold change in phosphorylated Chk2 protein level at 9 nM in the presence of 1.5 Gy irradiation by Western blot analysis relative to control; assay type: cell-based
[15] = target: Serine/threonine-protein kinase Chk2 (Homo sapiens) (UniProt O96017); experiment: Inhibition of Chk2 phosphorylation in human SW620 cells with IR-induced DNA damage assessed as fold change in phosphorylated Chk2 protein level at 27 nM in the presence of 1.5 Gy irradiation by Western blot analysis relative to control; assay type: cell-based
[16] = target: Serine/threonine-protein kinase Chk2 (Homo sapiens) (UniProt O96017); experiment: Inhibition of Chk2 phosphorylation in human SW620 cells with IR-induced DNA damage assessed as fold change in phosphorylated Chk2 protein level at 83 nM in the presence of 1.5 Gy irradiation by Western blot analysis relative to control; assay type: cell-based
[17] = target: Serine/threonine-protein kinase Chk2 (Homo sapiens) (UniProt O96017); experiment: Inhibition of Chk2 phosphorylation in human SW620 cells with IR-induced DNA damage assessed as fold change in phosphorylated Chk2 protein level at 250 nM in the presence of 1.5 Gy irradiation by Western blot analysis relative to control; assay type: cell-based
[18] = target: T1, Serine-protein kinase ATM; experiment: Inhibition of ATM phosphorylation in human SW620 cells with IR-induced DNA damage assessed as fold change in phosphorylated ATM protein level at 3 nM in the presence of 3 Gy irradiation by Western blot analysis relative to control; assay type: cell-based
[19] = target: T1, Serine-protein kinase ATM; experiment: Inhibition of ATM phosphorylation in human SW620 cells with IR-induced DNA damage assessed as fold change in phosphorylated ATM protein level at 9 nM in the presence of 3 Gy irradiation by Western blot analysis relative to control; assay type: cell-based
[20] = target: T1, Serine-protein kinase ATM; experiment: Inhibition of ATM phosphorylation in human SW620 cells with IR-induced DNA damage assessed as fold change in phosphorylated ATM protein level at 27 nM in the presence of 3 Gy irradiation by Western blot analysis relative to control; assay type: cell-based
[21] = target: T1, Serine-protein kinase ATM; experiment: Inhibition of ATM phosphorylation in human SW620 cells with IR-induced DNA damage assessed as fold change in phosphorylated ATM protein level at 83 nM in the presence of 3 Gy irradiation by Western blot analysis relative to control; assay type: cell-based
[22] = target: T1, Serine-protein kinase ATM; experiment: Inhibition of ATM phosphorylation in human SW620 cells with IR-induced DNA damage assessed as fold change in phosphorylated ATM protein level at 250 nM in the presence of 3 Gy irradiation by Western blot analysis relative to control; assay type: cell-based
[23] = target: Serine/threonine-protein kinase Chk2 (Homo sapiens) (UniProt O96017); experiment: Inhibition of Chk2 phosphorylation in human SW620 cells with IR-induced DNA damage assessed as fold change in phosphorylated Chk2 protein level at 3 nM in the presence of 3 Gy irradiation by Western blot analysis relative to control; assay type: cell-based
[24] = target: Serine/threonine-protein kinase Chk2 (Homo sapiens) (UniProt O96017); experiment: Inhibition of Chk2 phosphorylation in human SW620 cells with IR-induced DNA damage assessed as fold change in phosphorylated Chk2 protein level at 9 nM in the presence of 3 Gy irradiation by Western blot analysis relative to control; assay type: cell-based
[25] = target: Serine/threonine-protein kinase Chk2 (Homo sapiens) (UniProt O96017); experiment: Inhibition of Chk2 phosphorylation in human SW620 cells with IR-induced DNA damage assessed as fold change in phosphorylated Chk2 protein level at 27 nM in the presence of 3 Gy irradiation by Western blot analysis relative to control; assay type: cell-based
[26] = target: Serine/threonine-protein kinase Chk2 (Homo sapiens) (UniProt O96017); experiment: Inhibition of Chk2 phosphorylation in human SW620 cells with IR-induced DNA damage assessed as fold change in phosphorylated Chk2 protein level at 83 nM in the presence of 3 Gy irradiation by Western blot analysis relative to control; assay type: cell-based
[27] = target: Serine/threonine-protein kinase Chk2 (Homo sapiens) (UniProt O96017); experiment: Inhibition of Chk2 phosphorylation in human SW620 cells with IR-induced DNA damage assessed as fold change in phosphorylated Chk2 protein level at 250 nM in the presence of 3 Gy irradiation by Western blot analysis relative to control; assay type: cell-based
[28] = test system: SW-620; experiment: Anticancer activity against human SW620 cells assessed as reduction in cell viability incubated for 5 days by MTT assay; assay type: functional, cell-based; details: SW-620, 120 h
[29] = test system: HCT-116; experiment: Anticancer activity against human HCT-116 cells assessed as reduction in cell viability incubated for 5 days by MTT assay; assay type: functional, cell-based; details: HCT-116, 120 h
[30] = test system: SW-620; experiment: Cell cycle arrest in human SW620 cells assessed as accumulation of cells at G2/M phase at 1 uM incubated for 24 hrs by PI staining based flow cytometric analysis; assay type: functional
[31] = test system: SW-620; experiment: Induction of apoptosis in human SW620 cells assessed as viable cells at 1 uM measured after 72 hrs by Annexin V-FITC staining based flow cytometric analysis (reference value: 87.36%); assay type: functional; details: read-out: Activity
[32] = test system: SW-620; experiment: Induction of apoptosis in human SW620 cells assessed as early apoptotic cells at 1 uM measured after 72 hrs by Annexin V-FITC staining based flow cytometric analysis (reference value: 1.06%); assay type: functional
[33] = test system: SW-620; experiment: Induction of apoptosis in human SW620 cells assessed as late apoptotic cells at 1 uM measured after 72 hrs by Annexin V-FITC staining based flow cytometric analysis (reference value: 5.75%); assay type: functional
[34] = test system: SW-620; experiment: Induction of apoptosis in human SW620 cells assessed as necrotic cells at 1 uM measured after 72 hrs by Annexin V-FITC staining based flow cytometric analysis (reference value: 5.83%); assay type: functional
[35] = target: T1, Serine-protein kinase ATM; experiment: Inhibition of ATM in human SW620 cells assessed as increase in gamma H2AX foci at 1 uM incubated for 24 hrs by confocal microscopic analysis; assay type: cell-based

SMILES: C[C@H](c1ccccc1)n1nnc2cnc3ccc(-c4ccc(F)nc4)cc3c21
- pIC50 [1]: 7.24

SMILES: C[C@@H](c1ccccc1)n1nnc2cnc3ccc(-c4ccc(N)nc4)cc3c21
- pIC50 [1]: 7.35

SMILES: C[C@@H](c1ccc(F)cc1)n1nnc2cnc3ccc(-c4ccc(N)nc4)cc3c21
- pIC50 [1]: 6.60

SMILES: COc1cccc([C@@H](C)n2nnc3cnc4ccc(-c5ccc(N)nc5)cc4c32)c1
- pIC50 [1]: 8.30

SMILES: C[C@H](c1ccccc1)n1nnc2cnc3ccc(-c4ccc(F)cc4)cc3c21
- pIC50 [1]: 6.76

SMILES: CC(C)n1c(=O)n(C)c2cnc3cc(F)c(-c4ccc(OCCCN5CCCCC5)nc4)cc3c21
- Activity [2]: Active
- Activity [3]: Active
- Activity [4]: inactive
- Activity [5]: inactive
- Activity [6]: Active
- Activity [7]: Active
- inhibition [8]: Dose-Dependent Effect
- fold change (FC) [9]: 0.56
- fold change (FC) [10]: 1.6
- fold change (FC) [11]: 1.9
- fold change (FC) [12]: 2.5
- fold change (FC) [13]: 0.92
- fold change (FC) [14]: 0.92
- fold change (FC) [15]: 1.2
- fold change (FC) [16]: 1
- fold change (FC) [17]: 0.58
- fold change (FC) [18]: 1.36
- fold change (FC) [19]: 1.34
- fold change (FC) [20]: 1
- fold change (FC) [21]: 0.8
- fold change (FC) [22]: 0.61
- fold change (FC) [23]: 4.2
- fold change (FC) [24]: 1.8
- fold change (FC) [25]: 0.6
- fold change (FC) [26]: 0.35
- fold change (FC) [27]: 0.25

SMILES: C[C@H](c1ccccc1)n1nnc2cnc3ccc(-c4ccc(Cl)nc4)cc3c21
- pIC50 [1]: 7.51

SMILES: CC[C@H](c1ccccc1)n1nnc2cnc3ccc(-c4ccc(N)nc4)cc3c21
- pIC50 [1]: 8.05

SMILES: C[C@H](c1ccccc1)n1nnc2cnc3ccc(-c4cnc(N(C)C)nc4)cc3c21
- pIC50 [1]: 6.32

SMILES: Cn1nnc2cnc3ccc(-c4ccc(N)nc4)cc3c21
- pIC50 [1]: 6.61

SMILES: C[C@H](c1ccccc1)n1nnc2cnc3ccc(-c4ccc(OCCCCN(C)C)nc4)cc3c21
- pIC50 [1]: 8.00

SMILES: CC(C)n1nnc2cnc3ccc(-c4ccc(N)nc4)cc3c21
- pIC50 [1]: 7.70

SMILES: C[C@H](c1ccccc1)n1nnc2cnc3ccc(-c4ccc(OCCCN5CCCC5)nc4)cc3c21
- pIC50 [1]: 8.70

SMILES: CCc1c2c(nc3ccc(OC(=O)N4CCC(N5CCCCC5)CC4)cc13)-c1cc3c(c(=O)n1C2)COC(=O)[C@]3(O)CC [IRINOTECAN]
- pIC50 [28]: 6.85
- pIC50 [29]: 6.04
- Activity [30]: Active
- viability at 1 µM [31]: 67.3%
- Activity [32]: 4.61%
- Activity [33]: 21.89%
- Activity [34]: 6.2%
- inhibition [35]: Active

SMILES: C[C@H](c1ccccc1)n1nnc2cnc3ccc(-c4ccc(O)cc4)cc3c21
- pIC50 [1]: 7.28

SMILES: C[C@H](c1ccc(F)cc1)n1nnc2cnc3ccc(-c4ccc(N)nc4)cc3c21
- pIC50 [1]: 8.40

SMILES: C[C@H](c1ccccc1)n1nnc2cnc3ccc(-c4ccc(OCCN(C)C)nc4)cc3c21
- pIC50 [1]: 7.72

SMILES: C[C@H](c1ccccc1)n1nnc2cnc3ccc(-c4ccc(N)nc4)cc3c21
- pIC50 [1]: 8.70

SMILES: C[C@H](c1ccccc1)n1nnc2cnc3ccc(-c4ccnc(N)c4)cc3c21
- pIC50 [1]: 7.66
